These results are taken from patent US7304093B2, “Ketone compounds and compositions for cholesterol management and related uses” (Esperion Therapeutics, Inc., priority 2000, dated 2007).

The assay deals with primary rat hepatocytes. Nature of the assay: Inhibition of lipid synthesis ([1-14C]-acetate incorporation) in primary cultures of rat hepatocytes. The class given is cell-based. The following applies: Hepatocyte, 4 h incubation with [1-14C]-acetate, Table 7, ranges: confidence of estimate insufficient to assign a value. An outline of the steps:
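Monolayer primary hepatocytes from male Sprague-Dawley rats, serum-free overnight, were incubated 4 h with 0, 1, 3, 10, 30, 100 or 300 μM compound and 0.25 μCi [1-14C]-acetate per well. Total lipid synthesis was read as radioactivity in the lipid phase extracted into scintillant.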
For `CC(C)(CCCCC(=O)CCCCC(C)(C)C(=O)O)C(=O)O` [Compound 210c, 7-Oxo-2,2,12,12-tetramethyltridecanedioic acid], the half-maximal inhibitory concentration (IC50) is 3000 nM.
`CC(C)(CCCCCC(=O)CCCCCC(C)(C)C(=O)O)C(=O)O` [Compound 210g, 2,2,14,14-Tetramethyl-8-oxopentadecanedioic acid]: the half-inhibitory concentration (IC50) was 3000 nM.
As for `CC(C)(CO)CCCCC(=O)CCCCC(C)(C)CO` [Compound 214c, 1,13-Dihydroxy-2,2,12,12-tetramethyltridecan-7-one], the figure is 4000 nM.

Usually IC50 stands for the midpoint of a concentration-inhibition curve.
